{
  "source": "patent US20240376148A1",
  "about": "“MEDICAMENT FOR INHIBITING DIETARY OBESITY AND POLYPEPTIDE USED THEREFOR” (INSTITUTE OF ZOOLOGY, CHINESE ACADEMY OF SCIENCES, priority 2022, published 2024)",
  "type_in_all_cases": "in vivo",
  "key": {"UGN [1]": {"test_system": "UGN", "assay": "Mice ileum immunofluorescence", "protocol": "After the ileum was taken out, it was embedded with OCT and sliced by freezing microtome. Immunofluorescence brief steps: after the sections were washed with PBS for 3 times, 4% paraformaldehyde was added, fixed at room temperature for 10 min, and then washed with PBS for 3 times; 0.5% Triton X-100 was added, permeation at room temperature for 5 min, then washed with PBS 3 times; cell blocking solution was added and blocked at room temperature for 30 min; primary anti-UGN specific antibody (1:200) was added, 4° C. overnight and washed 3 times with PBST; the secondary antibody (1:500) was added, reacted at room temperature for 2 h, washed twice with PBST and washed once with PBS. The cells were stained with […] for additional 10 minutes at 37° C. Cleaned and sealed. Microscopic observation was recorded."}, "[2]": {"assay": "Short-term feed intake experiment of SPF rats", "conditions": "after 8 weeks of treatment, p<0.05", "description": "A total of 2 treatments were set up, with 5 rats in each treatment, and each treatment was subjected to different feeding treatments, specifically as follows:\nHFD group (i.e. high-fat diet group): 8 rats were fed with high-fat diet, the high-fat diet used was rodent feed (containing 60 kcal % fat, D12492), free diet and drinking water for 8 weeks.\nD3 group (i.e. high-fat diet+D3 medicine intragastric administration group): 10 rats were fed with high-fat diet, free diet and drinking water. Intragastrically administrated with HD (choose D3), 0.5 mg-2 mg/Kg body weight, 0.5 ml, once/day for 8 weeks.\nAccording to the above treatment, it was carried out for 8 weeks, and then within 1 week, the rats were starved for one day and then given feed, and the feed intake of the animals in the following day was recorded. That is, food weights were recorded every other day (4 separate measurements) and the average daily intake was determined for each 2-day period and calculated for each individual during the one-week measurement period. The obtained were the results of the short-term intake statistics (unit: g/only/day)."}, "UGN [3]": {"test_system": "UGN", "assay": "ELISA detection of serum UGN in rats", "conditions": "P<0.05", "protocol": "Serum preparation: mice were placed at room temperature for 2 hours or 4° C. overnight after eye vein blood collection, and centrifuged at 1000× g for 15 minutes at 2-8° C.; the supernatant can be taken for immediate detection; or subpackaged, and the specimens were stored at −20° C. or −80° C., but repeated freezing and thawing should be avoided. Thawed samples should be centrifuged again prior to detecting.\nThe serum sample diluent was diluted 1:200 times and then tested. The specific operation was as follows: 5 μl of the sample was added to 45 μl of the sample diluent (1:10 dilution) and mixed. Then 15 μl of the above diluent was added to the 285 μl sample diluent (1:20 dilution) and mixed. The sample obtained after the completion of the second step was 1:200 times dilution. The sample incubation, primary antibody, horseradish peroxidase labeled avidin working solution, color development, termination and enzyme labeling detection were carried out in turn."}, "Guca2b": {"test_system": "Guca2b", "assay": "Ileum transcriptome sequencing and qPCR gene expression in mice", "conditions": "P<0.01", "protocol": "In order to find the target genes that D3 may act on, the inventors performed ileal transcriptome analysis. Three samples from each group of mice were selected as targets for transcriptome sequencing. Ileal RNA was extracted using the Trizol method and an Agilent 2100 analyser was required to detect the RNA quality above 7 for RNA library construction. After passing the sample test, 2 μg of total RNA was taken from each sample to construct a transcriptome sequencing library. After data acquisition, the RNA-seq data was first de-redundantly removed using Trim galore v0.4.4 to remove junctions and low quality sequences. Using GRCm38 as the mice reference genome, HISAT2 v2.0.5 and StringTie v1.3.4 were used to quantify the abundance of each gene. Differential expression analysis was performed using DESeq2 v1.24.0.\nqPCR gene expression was carried out using the StepOnePlus real-time fluorescent quantitative PCR system. Three technical replicates were performed for each sample, and the identity and purity of the amplified product were checked by analyzing the melting curve at the end of the amplification. Gene expression results were referenced to the percent expression of each gene normalized to glyceraldehyde-3-phosphate dehydrogenase (GAPDH)."}},
  "data": [
    {"sequence": "RTRYCRTGR [D3]", "values": [
      {"measurement": "fluorescence intensity of UGN in ileal cells", "setting": "UGN [1]", "value": "significantly increased"},
      {"measurement": "daily feed intake (short-term) vs HFD group", "setting": "[2]", "value": "significantly lower"},
      {"measurement": "level of Guca2b in rat serum", "setting": "UGN [3]", "value": "significantly increased"},
      {"measurement": "expression of UGN (Guca2b) in the ileum", "setting": "Guca2b; GF mice", "value": "significantly up-regulated"},
      {"measurement": "expression of UGN (Guca2b) in the ileum", "setting": "Guca2b; SPF mice", "value": "significantly up-regulated"}
    ]}
  ]
}
